Reference: article PMC10247784, “Physiological activation of human and mouse bitter taste receptors by bile acids” (Communications Biology, 2023)

Biological target: T1, mouse Tas2r117 (Mus musculus, UniProt Q7M715)
T1 construct: expressed in transfected cells; host or cells: HEK293T-Gα16gust44
T1 sequence (Q7M715 1-330): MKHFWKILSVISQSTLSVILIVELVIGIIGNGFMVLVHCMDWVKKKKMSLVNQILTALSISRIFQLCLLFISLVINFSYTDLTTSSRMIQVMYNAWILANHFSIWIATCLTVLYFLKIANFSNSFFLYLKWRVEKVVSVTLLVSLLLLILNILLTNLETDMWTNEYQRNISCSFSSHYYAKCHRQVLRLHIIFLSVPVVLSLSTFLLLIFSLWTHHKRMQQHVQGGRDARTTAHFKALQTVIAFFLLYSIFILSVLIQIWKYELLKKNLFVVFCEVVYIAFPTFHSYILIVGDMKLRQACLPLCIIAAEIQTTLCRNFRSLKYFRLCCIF
Assay: Calcium imaging assay (FLIPR), HEK293T-Gα16gust44 cells transfected with mouse Tas2r117
Format: cell-based
Conditions: for Δ F/F: Tas2r117; for RLU: sheet Tas2r117, time trace
Description: This set of bile acids was chosen because of their commercial availability in high purities, their diversity within the class of bile acids and their previous detection and quantitation in human blood. Stock solutions were prepared in DMSO.
As basal growth medium for the HEK293T-Gα16gust44 cell line[17],[59] served Dulbecco’s modified eagle medium (DMEM) (Thermo Fisher Scientific, Darmstadt, Germany) supplemented with 10 % fetal bovine serum (Sigma-Aldrich, Steinheim, Germany), 2 mM L-glutamine (Sigma-Aldrich, Steinheim, Germany), 100 units/ml penicillin (Sigma Aldrich, Steinheim, Germany) and 100 µg/ml streptomycin (Sigma Aldrich, Steinheim, Germany). Growth conditions were 37 °C, 5 % CO2 and saturated air-humidity[60].
HEK293T-Gα16gust44 cells were seeded on poly-D-lysine (10 µg/ml) coated 96-well plates to reach a confluence of 40-60 % the next day. For transient transfection 150 ng of plasmid DNA containing the receptor of interest and 0.3 µl lipofectamine 2000 (Thermo Fisher Scientific, Darmstadt, Germany) per well were used and transfection took place according to the manual of lipofectamine 2000. […] The empty vector DNA (mock) was transfected as negative control[14],[41].
Cells were loaded using the calcium-sensitive fluorescent dye Fluo-4-AM (Abcam, Cambridge, Great Britain) in the presence of 2.5 mM probenecid (Sigma-Aldrich, Steinheim, Germany) the day after transfection[13],[41]. 1 h after loading, cells were washed with C1 buffer using a BioTek Cell Washer, incubated in the dark for half an hour and washed again. For automated agonist application and measurement of fluorescence changes, a FLIPR^TETRA device (Molecular Devices, San José, United States) was used. Viability of cells was tested by application of 100 nM Somatostatin 14 (Bachem, Bubendorf, Switzerland)[42].
Measured data were negative control corrected by subtracting the signal of the mock-transfected cells and exported to Microsoft Excel using the FLIPR software ScreenWorks 4.2. In Microsoft Excel software, standardization of maximum fluorescence intensities to the basal fluorescence and normalization to the buffer-only control was done to calculate the relative fluorescence changes (ΔF/F).
Initial screening experiments performed in duplicate wells were confirmed by at least one replication and representative traces were selected for display. All dose-response relationships were determined by three independent experiments (biological replicates) performed in duplicates (technical replicates). Threshold concentrations, defined as lowest substance concentrations leading to statistically significant elevated fluorescence changes in receptor-transfected cells compared with empty vector-transfected cells, were determined using SigmaPlot with Student’s t-test to evaluate statistical significance (p < 0.01).

## C[C@H](CCC(=O)NCCS(=O)(=O)O)[C@H]1CC[C@H]2[C@@H]3[C@H](O)C[C@@H]4C[C@H](O)CC[C@]4(C)[C@H]3C[C@H](O)[C@]12C [Taurocholic Acid, taurocholic acid]
  EC50: 37.4 ± 7.3 µM
conc. 0,01 mM
  Δ F/F: 0.02164
conc. 0,1 mM
  Δ F/F: 0.0925
conc. 0,03 mM
  Δ F/F: 0.05976
conc. 0,3 mM
  Δ F/F: 0.1209
conc. 0,0003 mM
  Δ F/F: -0.001001
conc. 0,001 mM
  Δ F/F: -0.004431
conc. 0,003 mM
  Δ F/F: 0.00222
Time (s) 0
  RLU: 0 RLU
Time (s) 2
  RLU: 37 RLU
Time (s) 4
  RLU: -4.077 RLU
Time (s) 6
  RLU: 12.5668 RLU
Time (s) 8
  RLU: 5.638 RLU
Time (s) 12
  RLU: -15.6594 RLU
Time (s) 14
  RLU: 17.1601 RLU
Time (s) 16
  RLU: -10.5322 RLU
Time (s) 18
  RLU: -8.953 RLU
Time (s) 18.797
  RLU: 34.4566 RLU
Time (s) 20.797
  RLU: 16.7527 RLU
Time (s) 22.797
  RLU: -7.054 RLU
Time (s) 24.797
  RLU: 38.2926 RLU
Time (s) 26.797
  RLU: 125.403 RLU
Time (s) 28.797
  RLU: 141.128 RLU
Time (s) 30.797
  RLU: 183.922 RLU
Time (s) 32.797
  RLU: 250.112 RLU
Time (s) 34.797
  RLU: 267.824 RLU
Time (s) 36.797
  RLU: 315.731 RLU
Time (s) 38.797
  RLU: 324.81 RLU
Time (s) 40.797
  RLU: 359.212 RLU
Time (s) 42.797
  RLU: 402.392 RLU
Time (s) 44.797
  RLU: 440.644 RLU
Time (s) 46.797
  RLU: 454.758 RLU
Time (s) 48.797
  RLU: 463.447 RLU
Time (s) 50.797
  RLU: 471.258 RLU
Time (s) 52.797
  RLU: 487.155 RLU
Time (s) 54.797
  RLU: 505.642 RLU
Time (s) 56.797
  RLU: 516.341 RLU
Time (s) 58.797
  RLU: 527.833 RLU
Time (s) 60.797
  RLU: 539.947 RLU
Time (s) 62.797
  RLU: 536.466 RLU
Time (s) 64.797
  RLU: 575.129 RLU
Time (s) 66.797
  RLU: 570.621 RLU
Time (s) 68.797
  RLU: 568.562 RLU
Time (s) 70.797
  RLU: 591.97 RLU
Time (s) 72.797
  RLU: 606.798 RLU
Time (s) 74.797
  RLU: 593.706 RLU
Time (s) 76.797
  RLU: 614.892 RLU
Time (s) 78.797
  RLU: 632.141 RLU
Time (s) 80.797
  RLU: 632.141 RLU
Time (s) 82.797
  RLU: 632.241 RLU
Time (s) 84.797
  RLU: 611.445 RLU
Time (s) 86.797
  RLU: 626.947 RLU
Time (s) 88.797
  RLU: 643.242 RLU
Time (s) 90.797
  RLU: 605.466 RLU
Time (s) 92.797
  RLU: 611.522 RLU
Time (s) 94.797
  RLU: 620.11 RLU
Time (s) 96.797
  RLU: 645.547 RLU
Time (s) 98.797
  RLU: 644.046 RLU
Time (s) 100.797
  RLU: 637.565 RLU
Time (s) 102.797
  RLU: 626.02 RLU
Time (s) 104.797
  RLU: 634.671 RLU
Time (s) 106.797
  RLU: 616.97 RLU
Time (s) 108.797
  RLU: 624.712 RLU
Time (s) 110.797
  RLU: 625.807 RLU
Time (s) 112.797
  RLU: 626.586 RLU
Time (s) 114.797
  RLU: 603.263 RLU
Time (s) 116.797
  RLU: 606.551 RLU
Time (s) 118.797
  RLU: 596.327 RLU
Time (s) 120.797
  RLU: 576.654 RLU
Time (s) 122.797
  RLU: 563.677 RLU
Time (s) 124.797
  RLU: 585.101 RLU
Time (s) 126.797
  RLU: 566.056 RLU
Time (s) 128.797
  RLU: 584.636 RLU
Time (s) 130.797
  RLU: 552.659 RLU
Time (s) 132.797
  RLU: 568.02 RLU
Time (s) 134.797
  RLU: 561.297 RLU
Time (s) 136.797
  RLU: 551.223 RLU
Time (s) 137.562
  RLU: 556.479 RLU
Time (s) 143.578
  RLU: 502.769 RLU
Time (s) 149.578
  RLU: 498.126 RLU
Time (s) 155.578
  RLU: 490.146 RLU
Time (s) 161.578
  RLU: 459.867 RLU
Time (s) 167.578
  RLU: 446.745 RLU
Time (s) 173.578
  RLU: 415.03 RLU
Time (s) 179.578
  RLU: 413.791 RLU
Time (s) 191.578
  RLU: 382.098 RLU
Time (s) 197.578
  RLU: 382.449 RLU
Time (s) 209.578
  RLU: 344.754 RLU
Time (s) 221.578
  RLU: 256.376 RLU
Time (s) 233.578
  RLU: 235.774 RLU
Time (s) 239.578
  RLU: 212.664 RLU
Time (s) 245.578
  RLU: 220.667 RLU
Time (s) 293.578
  RLU: 147.781 RLU
Time (s) 299.578
  RLU: 155.364 RLU
Time (s) 305.578
  RLU: 177.719 RLU
Time (s) 311.578
  RLU: 178.93 RLU
Time (s) 317.578
  RLU: 167.01 RLU
Time (s) 323.578
  RLU: 136.818 RLU
Time (s) 329.578
  RLU: 148.504 RLU
Time (s) 335.578
  RLU: 153.255 RLU
Time (s) 341.578
  RLU: 110.601 RLU
Time (s) 347.578
  RLU: 112.243 RLU
Time (s) 353.578
  RLU: 94.0464 RLU
Time (s) 359.578
  RLU: 105.186 RLU
P < 0.01 vs empty vector
  Activation threshold concentration Tas2r117: 30 µM
